Results on 1 compound are retold here after patent EP4578855A1, “PROLYL HYDROXYLASE INHIBITOR AND USE THEREOF” (Suzhong Pharmaceutical Group Co., Ltd., priority 2022, dated 2024).

This experiment has as its system human hepatocarcinoma cell line Hep3B. Kind of experiment: In-vitro erythropoietin (EPO)-inducing activity experiment (EPO ELISA, OD450). The format is cell-based. To be noted: Homo sapiens, Hep3B, 24 h, Hep3B cells, incubated 24 hours at 37°C. The procedure:
In-vitro erythropoietin (EPO)-inducing activities of the compounds in Embodiments 10 to 12 were evaluated by using a human hepatocarcinoma cell line Hep3B (ATCC). Hep3B cells were cultured in an EMEM medium (Eagle's Minimum Essential Medium) at 37°C in the presence of 10% fetal bovine serum (FBS). Experimental steps were as follows: • (1) Cell preparation: the cells were inoculated in a 96-well plate, and cell plating was carried out according to an amount of 100 µL per well based on 2*10~4 per well. • (2) Preparation of compound concentration gradient: 100 µM, 20 µM, 2-parallel well detection. A solution with 200 times final concentration was prepared in a 96-well plate, the compound was diluted 200/3 times by using a cell culture medium, and then 50 µL of the compound was sucked for drug administration to the cells. 50 µL of DMSO-containing culture solution was added into a negative control well to make a final concentration contain 5 ‰ DMSO, and 50 µL of positive compound with the highest concentration was added into a positive control well to incubate the cells at 37°C for 24 hours. • (3) The reaction plate was washed twice with 1X Wash Buffer according to about 400 µL per well. • (4) 100 µL of diluted standard (comprising a standard blank control) was added into an appropriate well. • (5) 50 µL of sample and 50 µL of Sample Diluent were added into a sample well. • (6) 50 µL of 1X Biotin Conjugated Antibody were added into all wells to incubate the cells at room temperature for 1 hour. • (7) The reaction plate was washed with 1X Wash Buffer for 6 times according to about 400 µL per well. • (8) 100 µL of 1X Streptavidin-HRP was added in to each well to incubate the cells at room temperature for 15 minutes. • (9) The reaction plate was washed with 1X Wash Buffer for 6 times according to about 400 µL per well. • (10) 100 µL of TMB Substrate Solution was added into each well to incubate the cells at room temperature for 10 minutes. • (11) 100 µL of Stop Solution was added into each well. • (12) OD450 was read by EnSight.
The EPO-inducing activities of the compounds were expressed as the concentration for 50% of maximal effect (EC50).
Background: An ELISA detects its analyte on a solid surface through an enzyme-linked reagent.

The term EC50 denotes the concentration needed to bring the measured effect to its halfway point. Read a high EC50 as a need for much substance.

`O=C(O)CNC(=O)c1c(O)cc(C2CCc3ccccc3C2)n2ncnc12` (single isomer, unassigned) [Compound in Embodiment 13, [(7-hydroxy-5-(1,2,3,4-tetrahydronaphthalene-2-yl)-[1,2,4]triazolo[1,5-a]pyridine-8-carbonyl)amino]acetic acid] had an EC50 of 5.05 µM.
